Results published in PubChem BioAssay AID248 (DTP/NCI, 2004).
Values joined by “and” are separate entries in the source; they are usually repeats but may differ in a detail not shown here. Identical values can stand only once. Inconclusive results and toxic doses are left out. No stated cut-off is given here; in the data, active means T/C of 150% or more; inactive means T/C below 125%.

Tested on: L1210 leukemia ip in BDF1 mice, survival T/C
Experiment: NCI In Vivo Anticancer Drug Screen. Data for tumor model L1210 Leukemia (intraperitoneal) in B6D2F1 (BDF1) mice
Details: endpoint: mean survival time, higher = longer survival
Method in brief: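 Survival endpoint. Drug-treated group vs vehicle group, expressed as T divided by C. Tumor passaged by transplantation.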

[1] = dose: 100.0 mg/kg/injection, schedule: Q01DX009 (ip), vehicle: Klucel (hydroxypropylcellulose) (HPC)
[2] = dose: 200.0 mg/kg/injection, schedule: Q01DX009 (ip), vehicle: Klucel (hydroxypropylcellulose) (HPC)
[3] = dose: 400.0 mg/kg/injection, schedule: Q01DX009 (ip), vehicle: Klucel (hydroxypropylcellulose) (HPC)
[4] = dose: 50.0 mg/kg/injection, schedule: Q01DX009 (ip), vehicle: saline
[5] = dose: 100.0 mg/kg/injection, schedule: Q01DX009 (ip), vehicle: saline
[6] = dose: 100.0 mg/kg/injection, schedule: Q04DX003 (ip), vehicle: Klucel (hydroxypropylcellulose) (HPC)
[7] = dose: 200.0 mg/kg/injection, schedule: Q04DX003 (ip), vehicle: Klucel (hydroxypropylcellulose) (HPC)
[8] = dose: 400.0 mg/kg/injection, schedule: Q04DX003 (ip), vehicle: Klucel (hydroxypropylcellulose) (HPC)
[9] = dose: 100.0 mg/kg/injection, schedule: Q01DX009 (ip), vehicle: saline with Tween-80
[10] = dose: 200.0 mg/kg/injection, schedule: Q01DX009 (ip), vehicle: saline with Tween-80
[11] = dose: 400.0 mg/kg/injection, schedule: Q01DX009 (ip), vehicle: saline with Tween-80
[12] = dose: 100.0 mg/kg/injection, schedule: Q04DX003 (ip), vehicle: saline
[13] = dose: 200.0 mg/kg/injection, schedule: Q01DX009 (ip), vehicle: saline
[14] = dose: 400.0 mg/kg/injection, schedule: Q04DX003 (ip), vehicle: saline
[15] = dose: 200.0 mg/kg/injection, schedule: Q04DX002 (ip), vehicle: Klucel (hydroxypropylcellulose) (HPC)
[16] = dose: 400.0 mg/kg/injection, schedule: Q04DX002 (ip), vehicle: Klucel (hydroxypropylcellulose) (HPC)

Measured: T/C

CSc1ccccc1C1CCCCCC1OS(=O)(=O)c1ccc(C)cc1 (stereo not given)
inactive: dose: 15.0 mg/kg/injection, schedule: Q01DX001 (ip), vehicle: carboxymethylcellulose (CMC) 96 % of control | dose: 30.0 mg/kg/injection, schedule: Q01DX001 (ip), vehicle: carboxymethylcellulose (CMC) 102 % of control

CS(=O)(=O)Oc1c(Cl)cc(Cl)cc1Sc1cc(Cl)cc(Cl)c1OS(C)(=O)=O
inactive: dose: 100.0 mg/kg/injection, schedule: Q01DX001 (ip), vehicle: carboxymethylcellulose (CMC) 95 % of control | dose: 200.0 mg/kg/injection, schedule: Q01DX001 (ip), vehicle: carboxymethylcellulose (CMC) 104 % of control | dose: 400.0 mg/kg/injection, schedule: Q01DX001 (ip), vehicle: carboxymethylcellulose (CMC) 101 % of control

COc1ccc(Cl)cc1NC(=O)Nc1cccc(F)c1
inactive: [1] 97 % of control | [2] 97 % of control | [3] 97 % of control

C=CCc1cccc(CC=C)c1OCCN(CC)CC
inactive: dose: 25.0 mg/kg/injection, schedule: Q01DX009 (ip), vehicle: saline 98 % of control | [4] 105 % of control | [5] 95 % of control and 107 % of control

O=C(O)c1ccc(B(O)O)cc1
inactive: [6] 103 % of control | [7] 103 % of control | [8] 93 % of control

Cn1cccc1C=O
inactive: [9] 102 % of control | [10] 100 % of control | [11] 97 % of control

O=C1CC(c2ccc(Cl)cc2)NC(c2ccc(Cl)cc2)C1 (stereo not given)
inactive: [9] 101 % of control | dose: 100.0 mg/kg/injection, schedule: Q04DX003 (ip), vehicle: saline with Tween-80 93 % of control | [10] 101 % of control | dose: 200.0 mg/kg/injection, schedule: Q04DX003 (ip), vehicle: saline with Tween-80 96 % of control | [11] 103 % of control | dose: 400.0 mg/kg/injection, schedule: Q04DX003 (ip), vehicle: saline with Tween-80 98 % of control

O=c1cc(C2CCCCC2)c2ccccc2[nH]1
inactive: dose: 100.0 mg/kg/injection, schedule: Q04DX003 (ip), vehicle: gum acacia 91 % of control | dose: 200.0 mg/kg/injection, schedule: Q04DX003 (ip), vehicle: gum acacia 97 % of control | dose: 400.0 mg/kg/injection, schedule: Q04DX003 (ip), vehicle: gum acacia 91 % of control

Nc1nc2ncc(=O)[nH]c2c(=O)[nH]1
inactive: [4] 106 % of control | dose: 50.0 mg/kg/injection, schedule: Q04DX003 (ip), vehicle: saline 103 % of control | [5] 101 % of control | [12] 100 % of control | [13] 87 % of control | dose: 200.0 mg/kg/injection, schedule: Q04DX003 (ip), vehicle: saline 106 % of control | [14] 122 % of control

CN1CNC(=O)NC1
inactive: [1] 113 % of control | [6] 105 % of control | [2] 105 % of control | [7] 105 % of control | [3] 103 % of control | [8] 111 % of control

CCOc1ccc(NC(C)=O)cc1Br
inactive: dose: 100.0 mg/kg/injection, schedule: Q01DX001 (ip), vehicle: other 103 % of control | dose: 200.0 mg/kg/injection, schedule: Q01DX001 (ip), vehicle: other 103 % of control | dose: 400.0 mg/kg/injection, schedule: Q01DX001 (ip), vehicle: other 111 % of control

CC(C)CCCC(C)C1CCC2C3CC(O)C45CC4CCC5(C)C3CCC12C (stereo not given)
inactive: [15] 89 % of control | [16] 92 % of control

CC(C#N)N(C)C (stereo not given)
inactive: dose: 5.0 mg/kg/injection, schedule: Q01DX001 (ip), vehicle: saline 96 % of control | dose: 10.0 mg/kg/injection, schedule: Q01DX001 (ip), vehicle: saline 104 % of control | dose: 10.0 mg/kg/injection, schedule: Q01DX009 (ip), vehicle: saline 98 % of control | dose: 20.0 mg/kg/injection, schedule: Q01DX001 (ip), vehicle: saline 102 % of control | dose: 20.0 mg/kg/injection, schedule: Q01DX009 (ip), vehicle: saline 109 % of control | dose: 40.0 mg/kg/injection, schedule: Q01DX009 (ip), vehicle: saline 98 % of control

COc1cc(C(=O)O)c2c(c1C)OC(=O)c1c(C)cc(O)c(C=O)c1O2
inactive: dose: 8.0 mg/kg/injection, schedule: Q01DX Z (ip), vehicle: saline 91 % of control | dose: 16.0 mg/kg/injection, schedule: Q01DX Z (ip), vehicle: saline 102 % of control | dose: 32.0 mg/kg/injection, schedule: Q01DX Z (ip), vehicle: saline 100 % of control | dose: 40.0 mg/kg/injection, schedule: Q04DX003 (ip), vehicle: Klucel (hydroxypropylcellulose) (HPC) 97 % of control | dose: 64.0 mg/kg/injection, schedule: Q01DX Z (ip), vehicle: saline 111 % of control | dose: 80.0 mg/kg/injection, schedule: Q04DX003 (ip), vehicle: Klucel (hydroxypropylcellulose) (HPC) 107 % of control | dose: 160.0 mg/kg/injection, schedule: Q04DX003 (ip), vehicle: Klucel (hydroxypropylcellulose) (HPC) 107 % of control

O=c1[nH]c(SCc2ccccc2[N+](=O)[O-])nc2nc[nH]c12
inactive: [1] 90 % of control | dose: 100.0 mg/kg/injection, schedule: Q04DX002 (ip), vehicle: Klucel (hydroxypropylcellulose) (HPC) 98 % of control | dose: 100.0 mg/kg/injection, schedule: Q04DX002 (ip), vehicle: saline 94 % of control | [2] 90 % of control | [15] 94 % of control | dose: 200.0 mg/kg/injection, schedule: Q04DX002 (ip), vehicle: saline 97 % of control | [3] 93 % of control | [16] 97 % of control | dose: 400.0 mg/kg/injection, schedule: Q04DX002 (ip), vehicle: saline 97 % of control

CC1=CC(=O)N(C2=CC(=O)C=CC2=O)/C1=C/C#N
inactive: dose: 12.5 mg/kg/injection, schedule: Q01DX001 (ip), vehicle: Klucel (hydroxypropylcellulose) (HPC) 97 % of control | dose: 25.0 mg/kg/injection, schedule: Q01DX001 (ip), vehicle: Klucel (hydroxypropylcellulose) (HPC) 88 % of control | dose: 50.0 mg/kg/injection, schedule: Q01DX001 (ip), vehicle: Klucel (hydroxypropylcellulose) (HPC) 93 % of control and 89 % of control

O=S(=O)(O)c1ccc2c(O)cc(S(=O)(=O)O)cc2c1
inactive: [5] 106 % of control | [12] 95 % of control | [13] 112 % of control | dose: 400.0 mg/kg/injection, schedule: Q01DX009 (ip), vehicle: saline 103 % of control | [14] 100 % of control

C/C(=N/N=C(N)N)C(=O)O
inactive: dose: 15.0 mg/kg/injection, schedule: Q01DX Z (ip), vehicle: carboxymethylcellulose (CMC) 101 % of control | dose: 30.0 mg/kg/injection, schedule: Q01DX Z (ip), vehicle: carboxymethylcellulose (CMC) 97 % of control | dose: 60.0 mg/kg/injection, schedule: Q01DX Z (ip), vehicle: carboxymethylcellulose (CMC) 100 % of control and 101 % of control | dose: 120.0 mg/kg/injection, schedule: Q01DX Z (ip), vehicle: carboxymethylcellulose (CMC) 101 % of control and 103 % of control | dose: 240.0 mg/kg/injection, schedule: Q01DX Z (ip), vehicle: carboxymethylcellulose (CMC) 112 % of control | dose: 480.0 mg/kg/injection, schedule: Q01DX Z (ip), vehicle: carboxymethylcellulose (CMC) 98 % of control
